Measurements taken from patent US9872870B2, “Multifunctional micellar nanoparticle-based drug and targeting agent system” (University of Notre Dame du Lac, priority 2011, dated 2018).

Legend:
[1] = tested on: NCI-H929 cells; test: DNA double strand breaks and apoptosis (western blot, immunocytochemistry, Annexin V); assay type: cell-based, human; conditions: 250 nM Dox equivalents, 0-48 h
Description: It is well established that Dox induces DNA double strand breaks (DSBs) and apoptosis of cancer cells. An early specific cellular response to DSBs in mammalian cells is the phosphorylation of the histone protein H2AX (γ-H2AX), with respective foci formation. Therefore, we examined whether free Dox and NPDox/VLA-4-pep triggered similar signaling cascades of DNA damage and apoptosis in MM cells. […] Phosphorylation of DNA damage response protein H2AX at Ser139 was assayed by western blotting (FIG. 10a). Respective H2AX foci formation was assayed by immunocytochemistry (FIG. 10b). Apoptosis was assessed by flow cytometry following Annexin V-FITC staining (FIG. 10c), and by western blotting for PARP cleavage and caspase-8 and caspase-9 activation (FIG. 10d).
For immunocytochemistry analysis, cytospins of drug-treated cells were prepared on glass slides and fixed with 4% paraformaldehyde. Slides were blocked with 5% goat serum, incubated with y-H2AX antibody (Cell Signaling) overnight at 4° C., and then with AlexaFluor-488-labelled Fab2 (Molecular Probes). Coverslips were then mounted on the glass slides with VectaShield antifade/DAR (Vector Labs) and analyzed by Nikon Eclipse TS100 fluorescence microscope at 60×/0.5-1.25 oil, with a Nikon Infinity camera. For flow cytometric analysis, data represent means (±SD) of triplicate experiments. For western blotting, representative images are shown, and all antibodies were purchased from Cell Signaling.

[2] = tested on: NCI-H929 subcutaneous xenograft; test: Subcutaneous xenograft model of MM, tumor growth; assay type: in vivo, CB.17 SCID mice; conditions: 6 mg/kg Dox equivalents iv on days 1, 3 and 5
Description: (§1) To validate the therapeutic efficacy of multifunctional nanoparticles, CB.17 SCID mice (Harlan Laboratories) were irradiated with 150 rad, and were inoculated subcutaneously with 5×10^6 NCI-H929 cells. […] When the tumors were palpable, each mouse was injected with the drug, intravenously, on days 1, 3, and 5. […] Animals were monitored for body weight and tumor volume by caliper measurements. Tumor growth inhibition was detected by caliper measurements (left). Data shown are means (±SE) of n=6-8 per treatment group. Statistical comparisons of continuous variables were carried out by Student's two-tailed t-test and were considered significant when P<0.05.
(§2) For determination of systemic toxicity, 3 additional mice from each group were sacrificed on day 5 before any lethality was observed. Organ weights were measured. For complete blood count analysis, 200 μl of blood was drawn from each mouse via cardiac puncture, immediately mixed with 50 μl of Sequester Solution (Cambridge Diagnostic Products), and was analyzed with the HemaVet950 (Drew Scientific). Immunohistochemical staining of excised tumors for caspase-3 was performed as previously described.
Three mice from each group were dissected on day 5 and tumors were stained for activated caspase-3. Representative images of tumor cross-sections that were captured using a Nikon Eclipse TS100 microscope at 20× magnification are shown.

[3] = tested on: NCI-H929 MM cells; test: Cytotoxicity assay (Cell Counting Kit-8); assay type: cell-based, human; conditions: Dox equivalents
Description: To determine cytotoxicity in the presence of fibronectin, MM cells were plated on fibronectin coated plates (40 μg/ml), in adhesion buffer, for 1 h. […] BSA coated plates were used as controls.

[4] = tested on: NCI-H929 cells; test: Cytotoxicity on fibronectin or BSA coated plates (CAM-DR)
Description: Cytotoxicity assays: Cytotoxicity was determined using Cell Counting Kft-8 (Dojindo) as previously described. […] In all cases, cell viability was assessed by cell counting kit-8 (CCK-8), and data represent means (±SD) of triplicate cultures.
Cell viability was assessed by cell counting kit-8 (CCK-8), and data represent means (±SD) of triplicate cultures.

[5] = Systemic toxicity in tumor bearing mice (body weight, lethality, blood count, organ weights, histopathology); assay type: in vivo, CB.17 SCID mice
Description: as §1, §2
To evaluate systemic toxicity, analysis of complete blood cell count, which is highly susceptible to chemotherapeutic agents, was performed. Three mice from each group were dissected on day 5, and complete blood count (white blood cell, red blood cell, and thrombocyte) was performed (FIG. 12e). Data represents means (±SE). *P<0.05, when compared to free Dox group.

Question: With COc1cccc2c1C(=O)c1c(O)c3c(c(O)c1C2=O)C[C@@](O)(C(=O)CO)C[C@@H]3O[C@H]1C[C@H](N)[C@H](O)[C@H](C)O1 [free Dox, doxorubicin] as the compound, how does the H2AX phosphorylation [1] read?
Answer: Its H2AX phosphorylation is “induced H2AX phosphorylation”.

Question: What about the “apoptosis (annexin V, PARP and caspase-8 activation)” value [1] of the same compound?
Answer: The value was “induced apoptosis”.

Question: What about the caspase-9 activation [1] of the same compound?
Answer: Its caspase-9 activation is “No significant caspase-9 activation”.

Question: What about the tumor growth inhibition [2] of the same compound?
Answer: Its tumor growth inhibition is “dramatic tumor growth inhibition”.

Question: What about the IC50 ([3]; NCI-H929, 48 h) of the same compound?
Answer: The IC50 was 190 ± 40 nM.

Question: And the IC50 ([3]; NCI-H929, 72 h)?
Answer: The IC50 was ~130 nM.

Question: And the “IC50, cytotoxicity in the presence of fibronectin” value [4]?
Answer: The value was 0.421-0.09 μM.

Question: And the “IC50 shift caused by adhesion to fibronectin (CAM-DR)” value ([4]; fibronectin vs BSA coated plates, 72 h)?
Answer: The value was 3 fold.

Question: And the lethality ([5]; 6 mg/kg Dox equivalents iv on days 1, 3 and 5)?
Answer: Its lethality is “lethality of all mice on day 7”.

Question: What about the “body weight loss” value ([5]; 6 mg/kg iv on days 1, 3 and 5) of the same compound?
Answer: The value was “significant loss of body weight”.

Question: What about the “liver mass loss and histopathology” value ([5]; day 5) of the same compound?
Answer: The value was “moderate hepatocellular hypertrophy and degeneration”.

Question: What about the “spleen mass loss and histopathology” value ([5]; day 5) of the same compound?
Answer: Its value is “severe fibrosis”.
